In patent US9938232B2, “LED photoinitiators” (SUN CHEMICAL CORPORATION, priority 2014, dated 2018):

What was measured:
[1] = Solubility in water and organic solvents (observation); type: physicochemical
Experimental: After cooling, the pH of the solution was adjusted to 4 with about 100 ml of a 50 wt % aqueous solution of acetic acid to precipitate a yellow solid. The solid was collected by filtration and dissolved in a saturated aqueous solution (100 ml) of sodium carbonate. Insoluble material was removed by filtration and the pH of the filtrate was adjusted to 5 to 6 with aqueous acetic acid to precipitate a yellow solid. The solid was collected by filtration and re-crystallized from 130 ml ethanol.

[2] = UV-spectra measurement; type: physicochemical
Experimental: Spectra were acquired using a Unicam UV-2 UV/VIS spectro-photometer. All absorption spectra were obtained using 1 cm cuvettes, scanning within the 200-800 nm range. Solutions were prepared in a 100 cm^3 volumetric flask, and, if required, subsequently diluted so that a maximum absorbance of less than 2 was obtained. From the absorption the molar extinction coefficient e was calculated in liter*mol^−1*cm^−1.

[3] = Solubility in multifunctional acrylates; type: physicochemical; conditions: 10 and 20 weight % in PPTTA, TMPTA and EO-TMPTA, stirred 10 minutes at 45° C.
Experimental: • Mn: 1050 Da, Mw 1360 Da • IR: v [cm-1]: 3318, 2930, 2861, 1716 (s), 1641, 1590 (vs), 1525, 1450, 1364, 1284, 1228, 1146, 1068, 927, 826, 770 Solubility: • The product as obtained according to Example 10 was added to different multifunctional acrylates to check solubility. Propoxylated pentaerythritol tetraacrylate (SR 494 LM, Sartomer company) (PPTTA), trimethylol propane triacrylate (SR 351M, Sartomer company) (TMPTA) and ethoxylated trimethylol propane triacrylate (Ebecryl LEO 10501, Allnex company) (EO-TMPTA) were used. The compound of example 10 was added in amounts of 10 and 20 weight % to each of the acrylates and stirred for 10 minutes at 45° C. In all cases (even at 20 weight %), clear, intense yellow, transparent mixtures were obtained.

Q: Which results are given for `CN(C)c1ccc(C(=O)c2ccc(N(C)C)cc2C(=O)O)cc1` [Example 2, 5-(dimethylamino)-2-[4-(dimethylamino)benzoyl]-benzoic acid]?
A: Solubility in DMSO ([1]; DMSO): soluble in DMSO; melting point: 269 to 272 °C

Q: Which results are given for `CN(C)c1ccc(C(=O)c2ccc(N(C)C)cc2C(=O)[O-])cc1.[K+]` [Example 6, 5-(dimethylamino)-2-[4-(dimethylamino)benzoyl]-benzoic acid potassium salt]?
A: Solubility in methylene chloride ([1]; methylene chloride): limited solubility in methylene chloride; Solubility in water ([1]; water): good solubility in water; UV-spectroscopy: λmax (H2O) ([2]; in H2O): 365 nm; Molar extinction coefficient ([2]; in water): 36192 L/mol/cm

Q: With `CCCCOCC(COC(=O)c1cc(N(C)C)ccc1C(=O)c1ccc(N(C)C)cc1)OC(=O)NCCCCCCNC(=O)OC(COCCCC)COC(=O)c1cc(N(C)C)ccc1C(=O)c1ccc(N(C)C)cc1` (stereo not shown) [Example 10] as the compound, how does the “Solubility in multifunctional acrylates” value [3] read?
A: very good solubility
